From PMC12090182, “Repurposing of the RIPK1-Selective Benzo[1,4]oxazepin-4-one Scaffold for the Development of a Type III LIMK1/2 Inhibitor” (ACS Chemical Biology, 2025)

Key:
Assay in all cases: biochemical
Type in all cases: binding
[1] = target: 468 kinases including some pathogenic mutants (Homo sapiens, UniProt P49336); conditions: CDK8 (Entrez CDK8), 100 nM; read-out: Percent Control
[2] = target: 468 kinases including some pathogenic mutants (Homo sapiens, UniProt Q99759); conditions: MAP3K3 (Entrez MAP3K3), 100 nM; read-out: Percent Control
[3] = target: 468 kinases including some pathogenic mutants (Homo sapiens, UniProt Q9UBF8); conditions: PIK4CB (Entrez PI4KB), 100 nM; read-out: Percent Control
[4] = target: 468 kinases including some pathogenic mutants (Homo sapiens, UniProt P07947); conditions: YES (Entrez YES1), 100 nM; read-out: Percent Control
[5] = target: 468 kinases including some pathogenic mutants (Homo sapiens, UniProt Q16513); conditions: PKN2 (Entrez PKN2), 1000 nM; read-out: Percent Control
[6] = target: 468 kinases including some pathogenic mutants (Homo sapiens, UniProt Q13464); conditions: ROCK1 (Entrez ROCK1), 100 nM; read-out: Percent Control
[7] = target: 468 kinases including some pathogenic mutants (Homo sapiens, UniProt Q9UQM7); conditions: CAMK2A (Entrez CAMK2A), 100 nM; read-out: Percent Control
[8] = target: 468 kinases including some pathogenic mutants (Homo sapiens, UniProt P12931); conditions: SRC (Entrez SRC), 1000 nM; read-out: Percent Control
[9] = target: 468 kinases including some pathogenic mutants (Homo sapiens, UniProt Q9NY57); conditions: YANK2 (Entrez STK32B), 1000 nM; read-out: Percent Control
[10] = target: 468 kinases including some pathogenic mutants (Homo sapiens, UniProt P57059); conditions: SIK (Entrez SIK1), 100 nM; read-out: Percent Control
[11] = target: 468 kinases including some pathogenic mutants (Homo sapiens, UniProt P51956); conditions: NEK3 (Entrez NEK3), 100 nM; read-out: Percent Control
[12] = target: 468 kinases including some pathogenic mutants (Homo sapiens, UniProt Q7KZI7); conditions: MARK2 (Entrez MARK2), 100 nM; read-out: Percent Control
[13] = target: 468 kinases including some pathogenic mutants (Homo sapiens, UniProt P04049); conditions: RAF1 (Entrez RAF1), 1000 nM; read-out: Percent Control
[14] = target: 468 kinases including some pathogenic mutants (Homo sapiens, UniProt P06213); conditions: INSR (Entrez INSR), 100 nM; read-out: Percent Control
[15] = target: 468 kinases including some pathogenic mutants (Homo sapiens, UniProt O94921); conditions: PFTK1 (Entrez CDK14), 100 nM; read-out: Percent Control
[16] = target: 468 kinases including some pathogenic mutants (Homo sapiens, UniProt Q9H3Y6); conditions: SRMS (Entrez SRMS), 1000 nM; read-out: Percent Control
[17] = target: 468 kinases including some pathogenic mutants (Homo sapiens, UniProt O95819); conditions: MAP4K4 (Entrez MAP4K4), 100 nM; read-out: Percent Control
[18] = target: 468 kinases including some pathogenic mutants (Homo sapiens, UniProt P36888, D835Y); conditions: read-out: Percent Control
[19] = target: 468 kinases including some pathogenic mutants (Homo sapiens, UniProt Q8TDC3); conditions: BRSK1 (Entrez BRSK1), 100 nM; read-out: Percent Control
[20] = target: 468 kinases including some pathogenic mutants (Homo sapiens, UniProt Q8TDX7); conditions: NEK7 (Entrez NEK7), 100 nM; read-out: Percent Control
[21] = target: 468 kinases including some pathogenic mutants (Homo sapiens, UniProt Q13554); conditions: CAMK2B (Entrez CAMK2B), 100 nM; read-out: Percent Control
[22] = target: 468 kinases including some pathogenic mutants (Homo sapiens, UniProt P10721, D816H); conditions: read-out: Percent Control
[23] = target: 468 kinases including some pathogenic mutants (Homo sapiens, UniProt P24941); conditions: CDK2 (Entrez CDK2), 100 nM; read-out: Percent Control
[24] = target: 468 kinases including some pathogenic mutants (Homo sapiens, UniProt P10721, D816V); conditions: read-out: Percent Control
[25] = target: 468 kinases including some pathogenic mutants (Homo sapiens, UniProt Q05655); conditions: PRKCD (Entrez PRKCD), 1000 nM; read-out: Percent Control
[26] = target: 468 kinases including some pathogenic mutants (Homo sapiens, UniProt P49137); conditions: MAPKAPK2 (Entrez MAPKAPK2), 100 nM; read-out: Percent Control
[27] = target: 468 kinases including some pathogenic mutants (Homo sapiens, UniProt Q14164); conditions: IKK-epsilon (Entrez IKBKE), 100 nM; read-out: Percent Control
[28] = target: 468 kinases including some pathogenic mutants (Homo sapiens, UniProt P42681); conditions: TXK (Entrez TXK), 100 nM; read-out: Percent Control
[29] = target: 468 kinases including some pathogenic mutants (Homo sapiens, UniProt Q9UM73, L1196M); conditions: read-out: Percent Control

Chain of 468 kinases including some pathogenic mutants (Homo sapiens, UniProt P57059) (P57059 whole entry, change not shown): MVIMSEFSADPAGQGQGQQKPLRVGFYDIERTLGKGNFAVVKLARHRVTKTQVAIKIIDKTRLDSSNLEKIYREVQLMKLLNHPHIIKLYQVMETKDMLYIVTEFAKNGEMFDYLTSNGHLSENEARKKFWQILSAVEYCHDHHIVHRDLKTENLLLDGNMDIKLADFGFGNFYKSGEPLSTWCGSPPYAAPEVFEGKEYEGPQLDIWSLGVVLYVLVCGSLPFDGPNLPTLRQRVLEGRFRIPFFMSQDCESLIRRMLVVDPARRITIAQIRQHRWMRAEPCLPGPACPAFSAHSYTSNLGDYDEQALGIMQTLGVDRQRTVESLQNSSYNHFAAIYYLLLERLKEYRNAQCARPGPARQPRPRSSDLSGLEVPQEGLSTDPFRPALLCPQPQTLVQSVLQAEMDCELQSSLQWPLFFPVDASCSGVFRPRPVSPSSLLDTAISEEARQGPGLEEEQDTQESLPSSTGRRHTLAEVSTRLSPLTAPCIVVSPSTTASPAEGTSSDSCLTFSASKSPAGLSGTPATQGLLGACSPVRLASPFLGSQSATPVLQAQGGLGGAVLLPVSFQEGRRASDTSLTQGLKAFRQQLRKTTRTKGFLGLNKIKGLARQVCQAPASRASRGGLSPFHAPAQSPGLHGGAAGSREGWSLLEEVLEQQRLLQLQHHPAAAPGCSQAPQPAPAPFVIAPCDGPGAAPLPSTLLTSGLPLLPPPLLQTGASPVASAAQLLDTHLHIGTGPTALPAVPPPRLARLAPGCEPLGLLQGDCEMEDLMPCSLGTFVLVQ
Chain of 468 kinases including some pathogenic mutants (Homo sapiens, UniProt P51956) (P51956 whole entry, change not shown): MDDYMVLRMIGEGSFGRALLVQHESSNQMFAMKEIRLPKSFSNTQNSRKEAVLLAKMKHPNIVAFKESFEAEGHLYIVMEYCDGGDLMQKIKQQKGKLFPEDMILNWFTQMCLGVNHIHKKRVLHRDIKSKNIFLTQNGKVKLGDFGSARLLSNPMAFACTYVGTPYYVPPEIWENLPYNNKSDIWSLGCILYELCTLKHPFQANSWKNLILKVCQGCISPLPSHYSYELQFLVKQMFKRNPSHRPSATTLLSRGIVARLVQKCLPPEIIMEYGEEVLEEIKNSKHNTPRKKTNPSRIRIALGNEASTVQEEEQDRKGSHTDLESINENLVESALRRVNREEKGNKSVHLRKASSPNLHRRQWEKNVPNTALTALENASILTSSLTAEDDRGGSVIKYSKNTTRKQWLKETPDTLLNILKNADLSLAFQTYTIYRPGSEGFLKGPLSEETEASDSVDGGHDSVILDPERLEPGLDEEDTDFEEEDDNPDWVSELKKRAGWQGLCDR
Chain of 468 kinases including some pathogenic mutants (Homo sapiens, UniProt Q9UQM7) (Q9UQM7 whole entry, change not shown): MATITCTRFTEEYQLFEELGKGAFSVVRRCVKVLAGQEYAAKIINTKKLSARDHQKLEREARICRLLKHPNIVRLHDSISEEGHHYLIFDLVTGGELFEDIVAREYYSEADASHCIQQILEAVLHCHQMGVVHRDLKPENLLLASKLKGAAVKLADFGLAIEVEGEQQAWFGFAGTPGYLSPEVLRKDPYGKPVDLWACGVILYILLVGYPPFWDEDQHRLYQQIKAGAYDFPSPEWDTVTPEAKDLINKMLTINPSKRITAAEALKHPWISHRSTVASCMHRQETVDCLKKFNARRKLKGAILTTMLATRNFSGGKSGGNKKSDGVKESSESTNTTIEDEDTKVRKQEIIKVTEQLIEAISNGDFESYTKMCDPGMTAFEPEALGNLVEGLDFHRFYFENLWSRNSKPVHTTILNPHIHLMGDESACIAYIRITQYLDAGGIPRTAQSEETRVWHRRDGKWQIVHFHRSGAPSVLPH
Chain of 468 kinases including some pathogenic mutants (Homo sapiens, UniProt Q99759) (Q99759 whole entry, change not shown): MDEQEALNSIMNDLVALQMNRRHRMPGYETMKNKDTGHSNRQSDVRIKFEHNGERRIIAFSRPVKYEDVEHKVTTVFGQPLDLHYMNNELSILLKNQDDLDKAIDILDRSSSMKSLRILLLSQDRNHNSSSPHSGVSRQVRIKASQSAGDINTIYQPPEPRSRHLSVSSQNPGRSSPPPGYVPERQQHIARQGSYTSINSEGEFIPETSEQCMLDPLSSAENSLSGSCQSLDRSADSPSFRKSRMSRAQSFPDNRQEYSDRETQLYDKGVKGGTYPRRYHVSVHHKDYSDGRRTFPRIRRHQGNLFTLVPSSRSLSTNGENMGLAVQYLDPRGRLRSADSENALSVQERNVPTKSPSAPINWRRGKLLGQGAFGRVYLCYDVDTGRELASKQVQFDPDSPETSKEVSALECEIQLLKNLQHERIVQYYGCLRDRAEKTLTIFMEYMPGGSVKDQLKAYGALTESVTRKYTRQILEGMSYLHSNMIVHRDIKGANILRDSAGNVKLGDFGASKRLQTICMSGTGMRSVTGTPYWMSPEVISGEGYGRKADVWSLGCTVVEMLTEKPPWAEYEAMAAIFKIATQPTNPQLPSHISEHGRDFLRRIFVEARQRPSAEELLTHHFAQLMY
Chain of 468 kinases including some pathogenic mutants (Homo sapiens, UniProt P42681) (P42681 whole entry, stated change not applied): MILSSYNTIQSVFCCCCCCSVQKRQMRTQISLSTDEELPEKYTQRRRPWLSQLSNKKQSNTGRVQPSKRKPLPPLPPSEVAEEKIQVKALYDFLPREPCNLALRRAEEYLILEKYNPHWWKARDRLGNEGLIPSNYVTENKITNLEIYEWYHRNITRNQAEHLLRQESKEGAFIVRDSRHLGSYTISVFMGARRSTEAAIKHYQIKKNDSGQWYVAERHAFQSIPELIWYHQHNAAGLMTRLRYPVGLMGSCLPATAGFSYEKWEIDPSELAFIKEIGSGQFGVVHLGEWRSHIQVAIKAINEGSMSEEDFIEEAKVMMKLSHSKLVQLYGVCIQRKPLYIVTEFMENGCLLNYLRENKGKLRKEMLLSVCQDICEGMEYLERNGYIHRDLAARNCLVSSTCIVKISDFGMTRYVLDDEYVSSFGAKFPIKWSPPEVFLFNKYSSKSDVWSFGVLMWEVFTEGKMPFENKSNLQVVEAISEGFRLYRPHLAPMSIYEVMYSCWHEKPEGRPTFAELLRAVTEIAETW
Chain of 468 kinases including some pathogenic mutants (Homo sapiens, UniProt Q13554) (Q13554 whole entry, stated change not applied): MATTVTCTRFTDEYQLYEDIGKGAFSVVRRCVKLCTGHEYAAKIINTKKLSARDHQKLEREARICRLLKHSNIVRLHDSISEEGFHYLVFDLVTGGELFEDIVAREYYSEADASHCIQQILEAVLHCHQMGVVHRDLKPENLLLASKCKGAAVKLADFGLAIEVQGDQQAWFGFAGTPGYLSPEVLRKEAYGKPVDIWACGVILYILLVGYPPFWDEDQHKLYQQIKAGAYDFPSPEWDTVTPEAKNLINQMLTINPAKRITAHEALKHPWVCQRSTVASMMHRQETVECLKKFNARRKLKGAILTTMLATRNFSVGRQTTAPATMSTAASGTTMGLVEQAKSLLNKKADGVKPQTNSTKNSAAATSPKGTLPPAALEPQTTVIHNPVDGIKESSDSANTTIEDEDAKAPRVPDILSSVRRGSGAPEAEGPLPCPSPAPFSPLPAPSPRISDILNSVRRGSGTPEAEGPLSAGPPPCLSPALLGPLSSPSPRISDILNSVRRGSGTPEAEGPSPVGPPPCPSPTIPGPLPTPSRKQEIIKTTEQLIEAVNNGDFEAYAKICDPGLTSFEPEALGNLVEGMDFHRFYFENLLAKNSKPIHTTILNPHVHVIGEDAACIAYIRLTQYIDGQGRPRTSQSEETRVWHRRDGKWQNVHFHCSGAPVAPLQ
Chain of 468 kinases including some pathogenic mutants (Homo sapiens, UniProt P49336) (P49336 whole entry, change not shown): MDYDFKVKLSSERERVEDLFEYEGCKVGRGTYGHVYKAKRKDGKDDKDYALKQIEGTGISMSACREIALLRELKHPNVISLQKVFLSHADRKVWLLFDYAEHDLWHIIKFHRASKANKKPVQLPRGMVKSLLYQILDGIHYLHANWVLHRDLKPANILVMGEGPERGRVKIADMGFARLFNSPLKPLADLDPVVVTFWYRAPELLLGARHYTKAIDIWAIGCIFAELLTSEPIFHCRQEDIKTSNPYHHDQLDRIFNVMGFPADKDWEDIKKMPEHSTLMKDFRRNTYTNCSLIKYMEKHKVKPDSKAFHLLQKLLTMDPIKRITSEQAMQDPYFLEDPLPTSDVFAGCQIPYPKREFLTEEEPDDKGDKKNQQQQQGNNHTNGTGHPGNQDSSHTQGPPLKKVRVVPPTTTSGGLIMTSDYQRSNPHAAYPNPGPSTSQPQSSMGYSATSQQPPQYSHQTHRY
Chain of 468 kinases including some pathogenic mutants (Homo sapiens, UniProt Q16513) (Q16513 whole entry, change not shown): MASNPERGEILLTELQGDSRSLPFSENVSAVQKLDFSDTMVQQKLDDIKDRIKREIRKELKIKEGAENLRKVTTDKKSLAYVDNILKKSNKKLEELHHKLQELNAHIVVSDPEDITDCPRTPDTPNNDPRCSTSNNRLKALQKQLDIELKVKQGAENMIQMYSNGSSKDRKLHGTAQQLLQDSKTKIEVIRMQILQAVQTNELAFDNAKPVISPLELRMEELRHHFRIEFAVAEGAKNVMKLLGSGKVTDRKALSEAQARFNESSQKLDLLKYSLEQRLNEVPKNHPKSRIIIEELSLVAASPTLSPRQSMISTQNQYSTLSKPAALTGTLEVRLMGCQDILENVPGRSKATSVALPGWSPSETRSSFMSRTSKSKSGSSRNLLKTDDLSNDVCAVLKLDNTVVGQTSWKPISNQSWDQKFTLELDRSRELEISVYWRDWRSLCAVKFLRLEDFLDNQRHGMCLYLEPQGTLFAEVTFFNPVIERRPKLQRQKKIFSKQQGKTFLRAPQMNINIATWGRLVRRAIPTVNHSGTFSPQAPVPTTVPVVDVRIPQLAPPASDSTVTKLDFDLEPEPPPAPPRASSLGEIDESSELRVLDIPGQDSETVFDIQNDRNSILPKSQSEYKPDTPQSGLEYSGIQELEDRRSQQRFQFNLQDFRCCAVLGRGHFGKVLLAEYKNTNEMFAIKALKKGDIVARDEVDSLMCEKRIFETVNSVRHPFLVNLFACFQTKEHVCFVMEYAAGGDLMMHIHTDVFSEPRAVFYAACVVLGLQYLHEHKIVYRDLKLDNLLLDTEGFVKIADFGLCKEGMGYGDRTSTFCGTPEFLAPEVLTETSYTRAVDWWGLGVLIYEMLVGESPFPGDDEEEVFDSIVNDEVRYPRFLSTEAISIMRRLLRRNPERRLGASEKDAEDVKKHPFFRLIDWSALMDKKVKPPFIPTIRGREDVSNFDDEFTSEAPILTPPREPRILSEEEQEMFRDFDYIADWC

## CN1C(=O)[C@@H](N2CCc3c(nn(Cc4ccccc4)c3C(N)=O)C2=O)COc2cc(Cl)ccc21 [Compound 10, (S)-2-benzyl-6-(8-chloro-5-methyl-4-oxo-2,3,4,5-tetrahydrobenzo[b][1,4]oxazepin-3-yl)-7-oxo-4,5,6,7-tetrahydro-2H-pyrazolo[3,4-c]pyridine-3-carboxamide]
[1]
  remaining activity at 0.1 µM: 100%
[2]
  remaining activity at 0.1 µM: 66%
[3]
  remaining activity at 0.1 µM: 94%
[4]
  remaining activity at 0.1 µM: 89%
[5]
  remaining activity at 1 µM: 100%
[6]
  remaining activity at 0.1 µM: 76%
[7]
  remaining activity at 0.1 µM: 76%
[8]
  remaining activity at 1 µM: 100%
[9]
  remaining activity at 1 µM: 100%
[10]
  remaining activity at 0.1 µM: 71%
[11]
  remaining activity at 0.1 µM: 100%
[12]
  remaining activity at 0.1 µM: 78%
[13]
  remaining activity at 1 µM: 100%
[14]
  remaining activity at 0.1 µM: 100%
[15]
  remaining activity at 0.1 µM: 95%
[16]
  remaining activity at 1 µM: 100%
[17]
  remaining activity at 0.1 µM: 99%
[18]
  remaining activity at 0.1 µM: 95%
[19]
  remaining activity at 0.1 µM: 91%
[20]
  remaining activity at 0.1 µM: 77%
[21]
  remaining activity at 0.1 µM: 67%
[22]
  remaining activity at 0.1 µM: 100%
[23]
  remaining activity at 0.1 µM: 83%
[24]
  remaining activity at 1 µM: 100%
[25]
  remaining activity at 1 µM: 100%
[26]
  remaining activity at 0.1 µM: 53%
[27]
  remaining activity at 0.1 µM: 61%
[28]
  remaining activity at 0.1 µM: 88%
[29]
  remaining activity at 0.1 µM: 89%
